We go through 1 molecule from patent US9494594B2, “Method of determining administration effect in cancer chemotherapy with S-1” (National University Corporation Chiba University, priority 2012, dated 2016).

In the assay the test system is shDCN cell line and Mock cell line of anticancer drug-resistant cell lines Sa-3R and KB-R. As to the kind of experiment: 5-FU sensitivity test, MTS cell survival assay. It counts as cell-based. Particulars: 72 hours incubation, shDCN vs Mock cell line. The method, then:
Next, the shDCN cell line and the Mock cell line were cultured in the presence of an anticancer drug, and a change in the degree of resistance to the anticancer drug by the suppressed expression of DCN was verified by measuring a change in cell growth ability. 5-FU was used as the anticancer drug.
The shDCN cell line and the Mock cell line were each seeded to a 96-well plate at a density of 2×10^3 cells/100 μl of medium/well, and simultaneously mixed with 10 μl of a medium supplemented with 5-FU. The concentration of 5-FU was adjusted so that the final concentration was 1 μM to 1×10^4 μM. After that, the cells were incubated for 72 hours, and a cell survival rate was evaluated by an MTS assay. An MTS solution (product of Promega Corporation) was added at a volume of 10 μl/well, and the cells were incubated for 4 hours. After that, counting was performed with a plate reader at a wavelength of 490 nm. A 50% survival concentration (IC50) was determined based on the results of, the MTS assay.

On to `O=c1[nH]cc(F)c(=O)[nH]1` [5-FU, 5-fluorouracil], for which the “IC50 value of shDCN cell line relative to Mock cell line (increase in sensitivity to 5-FU)” value is “about 10 times lower”.
